Test results as given in patent US4751215A, “Process for increasing the sexual activity of birds and useful domestic mammals and for preparing spermatozoa suitable to their propagation” (INNOFINANCE Altalanos Innovacios Penzintezet, priority 1985, dated 1988).

Tests used:
Type in all cases: in vivo
male turkeys = test: Effect of gonadoliberin analogues on the sperm production of male turkeys (Table 5)
Source text: In a further experiment, the sperm production of male turkeys was raised by administering the following four compounds: […]

[1] = test system: blood plasma testosterone level; test: Blood plasma testosterone level of ganders (Table 6); settings: for Testosterone: Treated (n = 10)
Procedure: (§1) Ganders kept under large-scale conditions and propagated in a natural way were treated with 0.5 μg/kg of D-Phe^6,desGly^10 -GnRH ethylamide analogue every 2 days, altogether 3 times. […] This manifested itself in the rise of the copulation activity (Table 6).

ganders [2] = test: Copulation activity / libido of ganders (Table 6); settings: for No. of daily copulations: Treated (n = 10)
Procedure: as §1

ganders [3] = test: Sperm production and sperm quality of ganders kept under natural conditions (Table 7)
Procedure: "Hungarian" and "Landes" ganders kept under natural conditions and divided to small groups were treated with 0.5 μg/kg of D-Phe^6,desGly^10 -GnRH ethylamide analogue every 2 days, altogether 3 times.

male angora rabbits = test: Enhancement of the sperm production of male rabbits; settings: 3 μg every 2 days, 3 times
Procedure: In this experiment male angora rabbits showing a low libido were used from which no sperm could be obtained. The motility of the cells in their sperm was lower than 75%; thus, these animals could not be used for propagating. Of these animals 234 were treated with 3 μg of D-Phe^6,desGly^10 -GnRH ethylamide analogue every 2 days, altogether 3 times. […] These effects could be observed for several weeks; thus, the amount of the sperm usable for artificial insemination increased to its 2.5-fold value.

[4] = at the beginning of the experiment
[5] = 0.5 μg/kg every 2 days, 3 times
[6] = "Hungarian" ganders, sampling February 7
[7] = "Hungarian" ganders, sampling February 14
[8] = "Hungarian" ganders, sampling February 21
[9] = "Hungarian" ganders, sampling February 28
[10] = "Hungarian" ganders, sampling January 15 (before treatment)
[11] = "Hungarian" ganders, sampling January 31
[12] = "Hungarian" ganders, sampling March 7
[13] = "Hungarian" ganders, sampling March 12
[14] = "Landes" ganders, sampling February 7
[15] = "Landes" ganders, sampling February 14
[16] = "Landes" ganders, sampling February 21
[17] = "Landes" ganders, sampling February 28
[18] = "Landes" ganders, sampling January 15 (before treatment)
[19] = "Landes" ganders, sampling January 31
[20] = "Landes" ganders, sampling March 7
[21] = "Landes" ganders, sampling March 12

`CCNC(=O)[C@@H]1CCCN1C(=O)[C@H](CCCNC(=N)N)NC(=O)[C@H](CC(C)C)NC(=O)[C@@H](Cc1ccccc1)NC(=O)[C@H](Cc1ccc(O)cc1)NC(=O)[C@H](CO)NC(=O)[C@H](Cc1c[nH]c2ccccc12)NC(=O)[C@H](Cc1c[nH]cn1)NC(=O)[C@@H]1CCC(=O)N1` [Compound "C", D-Phe^6,desGly^10 -GnRH ethylamide] gave a Sperm production (male turkeys; after 30 days) of 0.30 ml/animal, a Sperm production (male turkeys; after 60 days) of 0.32 ml/animal and a Sperm production (male turkeys; after 90 days) of 0.34 ml/animal. For the same compound, the Sperm production (male turkeys; after 120 days) was 0.30 ml/animal, the Sperm production (male turkeys; [4]) was 0.21 ml/animal and the “blood plasma testosterone level (in words)” value [1, 5] was “significantly raised”. For the same compound, the Testosterone ([1]; sampling October 1) was 390 ± 78 pg/mL, the Testosterone ([1]; sampling September 3) was 378 ± 142 pg/mL and the Testosterone ([1]; sampling September 10) was 470 ± 133 pg/mL. The Testosterone ([1]; sampling September 17) was 879 ± 145 pg/mL, the Testosterone ([1]; sampling September 24) was 695 ± 125 pg/mL and the “libido of the animals” value (ganders [2]; [5]) was “significantly raised”. The “duration of the high copulation activity” value (ganders [2]; 0.5 μg/kg, ganders) was “maintained at this high level for one additional month”, the “No. of daily copulations” value (ganders [2]; October 1) was 10 and the “No. of daily copulations” value (ganders [2]; September 3) was 9. For the same compound, the “No. of daily copulations” value (ganders [2]; September 10) was 7, the “No. of daily copulations” value (ganders [2]; September 17) was 12 and the “No. of daily copulations” value (ganders [2]; September 24) was 13. For the same compound, the “duration of the sperm production increase” value (ganders [3]; 0.5 μg/kg every 2 days, 3 times, "Hungarian" and "Landes" ganders) was “lasting for about one month and a half”, the Sperm (ganders [3]; "Hungarian" ganders, 0.5 μg/kg on January 28, 30, February 1, sampling January 15 (before treatment)) was 0.19 mL and the “Motility of the spermatozoa” value (ganders [3]; [6]) was “good”. The No. of spermatozoa (ganders [3]; [6]) was 3.2 10^6 /mm^3, the “Ratio of dead + deficient cells” value (ganders [3]; [6]) was 8% and the Sperm (ganders [3]; [6]) was 0.48 mL. The “Motility of the spermatozoa” value (ganders [3]; [7]) was “good”, the No. of spermatozoa (ganders [3]; [7]) was 3.0 10^6 /mm^3 and the “Ratio of dead + deficient cells” value (ganders [3]; [7]) was 10%. For the same compound, the Sperm (ganders [3]; [7]) was 0.56 mL, the “Motility of the spermatozoa” value (ganders [3]; [8]) was “good” and the No. of spermatozoa (ganders [3]; [8]) was 2.9 10^6 /mm^3. The “Ratio of dead + deficient cells” value (ganders [3]; [8]) was 12%, the Sperm (ganders [3]; [8]) was 0.30 mL and the “Motility of the spermatozoa” value (ganders [3]; [9]) was “good”. For the same compound, the No. of spermatozoa (ganders [3]; [9]) was 2.9 10^6 /mm^3, the “Ratio of dead + deficient cells” value (ganders [3]; [9]) was 14% and the Sperm (ganders [3]; [9]) was 0.23 mL. For the same compound, the “Motility of the spermatozoa” value (ganders [3]; [10]) was “weak”, the No. of spermatozoa (ganders [3]; [10]) was 2.1 10^6 /mm^3 and the “Ratio of dead + deficient cells” value (ganders [3]; [10]) was 19%. For the same compound, the “Motility of the spermatozoa” value (ganders [3]; [11]) was “weak”, the No. of spermatozoa (ganders [3]; [11]) was 2.3 10^6 /mm^3 and the “Ratio of dead + deficient cells” value (ganders [3]; [11]) was 20%. The Sperm (ganders [3]; [11]) was 0.25 mL, the “Motility of the spermatozoa” value (ganders [3]; [12]) was “good” and the No. of spermatozoa (ganders [3]; [12]) was 3.1 10^6 /mm^3. The “Ratio of dead + deficient cells” value (ganders [3]; [12]) was 17%, the Sperm (ganders [3]; [12]) was 0.44 mL and the “Motility of the spermatozoa” value (ganders [3]; [13]) was “good”. For the same compound, the No. of spermatozoa (ganders [3]; [13]) was 3.0 10^6 /mm^3, the “Ratio of dead + deficient cells” value (ganders [3]; [13]) was 14% and the Sperm (ganders [3]; [13]) was 0.33 mL. For the same compound, the Sperm (ganders [3]; "Landes" ganders, 0.5 μg/kg on January 28, 30, February 1, sampling January 15 (before treatment)) was 0.19 mL, the “Motility of the spermatozoa” value (ganders [3]; [14]) was “medium” and the No. of spermatozoa (ganders [3]; [14]) was 2.2 10^6 /mm^3. The “Ratio of dead + deficient cells” value (ganders [3]; [14]) was 19%, the Sperm (ganders [3]; [14]) was 0.32 mL and the “Motility of the spermatozoa” value (ganders [3]; [15]) was “good”. The No. of spermatozoa (ganders [3]; [15]) was 2.0 10^6 /mm^3, the “Ratio of dead + deficient cells” value (ganders [3]; [15]) was 16% and the Sperm (ganders [3]; [15]) was 0.45 mL. For the same compound, the “Motility of the spermatozoa” value (ganders [3]; [16]) was “medium”, the No. of spermatozoa (ganders [3]; [16]) was 2.0 10^6 /mm^3 and the “Ratio of dead + deficient cells” value (ganders [3]; [16]) was 19%. For the same compound, the Sperm (ganders [3]; [16]) was 0.38 mL, the “Motility of the spermatozoa” value (ganders [3]; [17]) was “medium” and the No. of spermatozoa (ganders [3]; [17]) was 2.2 10^6 /mm^3. For the same compound, the “Ratio of dead + deficient cells” value (ganders [3]; [17]) was 17%, the Sperm (ganders [3]; [17]) was 0.35 mL and the “Motility of the spermatozoa” value (ganders [3]; [18]) was “weak”. The No. of spermatozoa (ganders [3]; [18]) was 1.9 10^6 /mm^3, the “Ratio of dead + deficient cells” value (ganders [3]; [18]) was 23% and the “Motility of the spermatozoa” value (ganders [3]; [19]) was “medium”. For the same compound, the No. of spermatozoa (ganders [3]; [19]) was 2.0 10^6 /mm^3, the “Ratio of dead + deficient cells” value (ganders [3]; [19]) was 23% and the Sperm (ganders [3]; [19]) was 0.43 mL. For the same compound, the “Motility of the spermatozoa” value (ganders [3]; [20]) was “good”, the No. of spermatozoa (ganders [3]; [20]) was 1.9 10^6 /mm^3 and the “Ratio of dead + deficient cells” value (ganders [3]; [20]) was 20%. The Sperm (ganders [3]; [20]) was 0.18 mL, the “Motility of the spermatozoa” value (ganders [3]; [21]) was “medium” and the No. of spermatozoa (ganders [3]; [21]) was 1.8 10^6 /mm^3. The “Ratio of dead + deficient cells” value (ganders [3]; [21]) was 19%, the Sperm (ganders [3]; [21]) was 0.20 mL and the “increase of the amount of sperm usable for artificial insemination” value (male angora rabbits) was 2.5 fold. For the same compound, the “motility of spermatozoa in excess of the mean value (76%) of sperm from good males” value (male angora rabbits; in average, within 4 weeks after the treatment) was 10%, the “libido of the animals” value (male angora rabbits; low-libido male angora rabbits, within 4 weeks after the treatment) was “significantly increased” and the “sperm production relative to the average of sperm obtained from good males useful for breeding” value (male angora rabbits; weighed in ml, within 4 weeks after the treatment) was 80%.

“(Asp-α-anilide)^6,desGly^10 -GnRH [Compound "B"]” gave a Sperm production (male turkeys; after 30 days) of 0.21 ml/animal, a Sperm production (male turkeys; after 60 days) of 0.28 ml/animal and a Sperm production (male turkeys; [4]) of 0.18 ml/animal.
